Experimental data taken from patent US9402821B2, “Methods and pharmaceutical compositions for treatment of cystic fibrosis” (INSERM (Institut National de la sante et de la Recherche …, priority 2012, dated 2016).
“Also recorded” adds a separate entry of the source.

Columns and labels:
[1] = system: IL-8 promoter; assay: IL-8 promoter luciferase reporter / IL-8 mRNA qPCR, TNFα-stimulated cells; assay type: cell-based; settings: TNFα 10 ng/ml; bronchial epithelial cells and heterologous HeLa models (FIGS. 2A, B)
Protocol: Cells were transiently transfected by the short IL-8 promoter-firefly luciferase reporter and renilla luciferase reference and inflammation was induced by 10 ng/ml TNFα for 1 h. A. HeLa cells were pre-treated with diluent or different doses of sulindac 1 h before inflammation induction and 4 h after. IL-8 promoter activity in cells treated with sulindac+TNFα was expressed in percent of diluent+TNFα. B. After treatment, HeLa Ctr cells were lysed with TRIzol (Invitrogen). Total RNA was extracted, and 1 μg of total RNA was reverse transcribed with a reverse transcription kit. IL-8 mRNA expression was quantified by real-time quantitative PCR (qPCR). The comparative threshold cycle (CT) method was used for relative quantification of PCR products after IL-8 was normalised to TBP (ΔCt=CtIL-8−CtTBP). […] C After treatment, IL-8 in supernatant was measured by ELISA. The IL-8 stimulation of cells treated with test drug +TNFα were expressed as fold compared to drug −TNFα. […]
Cells were lysed with the Passive Lysis Buffer (Promega), and luciferase activity in the cellular extracts was determined by the Dual Luciferase Assay System (Promega) using a luminometer (Tristar; Berthold). The results were normalized to those obtained with the Renilla luciferase reference plasmid used to control the transfection efficiency, and the values were expressed as luminescence intensity (Luciferase/Renilla). […]

[2] = system: C57BL/6J mice; assay: LPS-induced lung inflammation mouse model, chemokines in BAL fluid by ELISA; assay type: in vivo; settings: sulindac 40 mg/kg i.p. 1 h before intratracheal LPS 5 mg/kg
Protocol: A. Protocol for lung inflammation mouse models. Lung inflammation was induced by two intra tracheal instillation of LPS (5 mg/kg), 24 h and 6 h prior sacrifice. Sulindac (40 mg/kg) or diluents were administered by intraperitoneal injection 1 h before LPS instillation. B. Mouse macrophage inflammatory protein (MIP-2) was monitored in BAL fluid by ELISA assay. LPS-stimulated MIP-2 production was inhibited by sulindac.
Male C57BL/6J mice (8-10 wk old) were treated by intraperitoneal (IP) injection of sulindac (40 mg/kg) or vehicle one hour before the time of endotoxin administration which caused lung injury. Lung inflammation was induced by LPS from E. coli (Sigma) prepared in saline and administered by injection intra-tracheal. In order to track at a single time point after LPS challenge both the early humoral and the late cell infiltrating components of the inflammatory response, a volume of 50 μl LPS solution (5 mg/kg) was administered at two consecutive doses with a 18 h interval between doses. This challenge method enables to track both cytokine and cellular responses to induction of inflammation. […] The chemokines keratinocyte chemoattractant (KC) and mouse macrophage inflammatory protein (MIP-2) were monitored in BAL fluid following the corresponding manufacturers' protocols using a standard sandwich enzyme-linked immune absorbent assay (ELISA, R&D Systems).

[3] = system: IκB; assay: Western blot of cytosolic IκB after TNFα; assay type: cell-based; settings: HeLa control cells; 500 μM 1 h pre-treatment; TNFα 10 ng/ml 30 min
Protocol: (§1) HeLa control cells were pre-treated with diluent (0.5%) or sulindac (500 μM) for 1 h and stimulated or not with 10 ng/ml TNFα for 30 min. Nuclear and cytosolic fractions were obtained by differential centrifugation. A. Analysis by western blot of cytosolic IKb quantity. The Iκb quantity was expressed in percent of control. […] B. Analysis by western blot of nuclear p65 quantity. Nuclear p65 quantity was expressed in percent of diluents+TNFα.
(§2) Nuclear and cytosolic fraction was obtained by differential centrifugation. Briefly, cells were lyses in buffer C (10 mM Hepes, 60 mM KCl, 1 mM EDTA, 7.8% NP40, 100 mM DTT, pH 7.6). After centrifugation, nucleus pellet were lyses in buffer N (27 mM Tris, 566 mM NaCl, 2 mM MgCl2, 1.3 mM EDTA, pH 8). Aliquots of fraction (30 μg protein) were separated by SDS-PAGE and transferred on PVDF membrane. The western blots were probed with mouse monoclonal antibodies specific for IκB or p65 (Santa-Cruz) 2 h at room temperature.

[4] = system: p65; assay: Western blot of nuclear p65 after TNFα; assay type: cell-based; settings: HeLa control cells; 500 μM 1 h pre-treatment; TNFα 10 ng/ml 30 min
Protocol: as §1, §2

CC1=C(CC(=O)O)c2cc(F)ccc2/C1=C\c1ccc([S+](C)[O-])cc1 (centres unmarked) [sulindac, (Z)-5-fluoro-2-methyl-1-[p-(methylsulfinyl)benzylidene]-indene-3-acetic acid]
IL-8 transcription [1]: decreased IL-8 transcription | KC (keratinocyte-derived chemokine) in BAL fluid [2]: decreased the secretion of KC and MIP-2 | MIP-2 in BAL fluid [2]: inhibited; also recorded: decreased the secretion of KC and MIP-2 | degradation of cytosolic IκB induced by TNFα [3]: did not modified this effect; also recorded: did not affect the degradation of IκB | nuclear translocation of NF-κB (nuclear p65 quantity) [4]: not significantly modified; also recorded: did not prevent the nuclear translocation of NF-κB
